This note sets out measurements from patent publication US10295552B2, “Method for diagnosis of primary hyperaldosteronism” (ATTOQUANT D[…], priority 2013, dated 2019).

For test [1], the system named is aldosterone-to-renin ratio (ARR). Put plainly: Aldosterone-to-renin ratio (ARR) before and 4 h after a single dose of a RAS blocker. The test is classed as in vivo, human. Particulars: 5 healthy volunteers, 4 h post administration vs predose. On the procedure:
(§1) FIG. 5: Comparison of the impact of RAS blocker administration on the ARR (upper panel) and the AA2R (lower panel). Plasma samples were collected from healthy volunteers before (Predose) and 4 h post administration of a single dose of an ACE inhibitor (left), renin inhibitor (middle) or angiotensin receptor blocker (ARB, right). Plasma aldosterone concentration, equilibrium angiotensin II concentration and active renin concentration were measured and the ARR and the AA2R was calculated for each sample. For calculation of the ARR, aldosterone concentrations in ng/L were divided by the plasma active renin concentration in ng/L. For calculation of the AA2R, aldosterone concentrations in pmol/L were divided by Ang II concentrations in pmol/L. Mean values of 5 healthy volunteers+/−SEM are shown in the graphs.
Single doses of three different anti-hypertensive drugs were administered to 5 healthy volunteers on 3 different treatment days separated by one week. 4 h following administration of a single dose of 10 mg Enalapril (ACE-Inhibitor), 50 mg Losartan (ARB) or 150 mg Aliskiren (Renin-Inhibitor), heparin blood was collected by venous puncture and plasma was separated by centrifugation. Samples were frozen at −80° C. till analysis.
StSable isotope-labeled aldosterone was added to the stabilized plasma samples at a concentration of 500 pg/ml for internal standardization. Following C18-based solid-phase-extraction, samples were subjected to mass spectrometry analysis using a reversed-phase analytical column (Acquity UPLC® C18, Waters) operating in line with a XEVO TQ-S triple quadrupole mass spectrometer (Waters) in MRM mode. Two different mass transitions were measured per analyte and standard and the concentrations were calculated by relating endogenous signals to internal standard signals under consideration of the corresponding response factors determined by calibration curves in human blank plasma.

The subject of test [2] is aldosterone-to-angiotensin II ratio (AA2R). Put plainly: Aldosterone-to-angiotensin II ratio (AA2R) before and 4 h after a single dose of a RAS blocker. Type of test: in vivo, human. Particulars: 5 healthy volunteers, 4 h post administration vs predose, heparin plasma equilibrated 60 min at 37° C. Here is the method:
as §1
Single doses of three different anti-hypertensive drugs were administered to 5 healthy volunteers on 3 different treatment days separated by one week. […]
Equilibrium Ang II levels were determined by quantification of the steady-state angiotensin peptide levels in equilibrated heparin plasma samples. […] Following equilibration, plasma angiotensin peptide levels were stabilized by the addition of protease inhibitors and equilibrium peptide levels were subsequently quantified by mass spectrometry. […] Two different mass transitions were measured per analyte and standard and the concentrations were calculated by relating endogenous signals to internal standard signals under consideration of the corresponding response factors determined by calibration curves in human blank plasma.
StSable isotope-labeled aldosterone was added to the stabilized plasma samples at a concentration of 500 pg/ml for internal standardization. […] Two different mass transitions were measured per analyte and standard and the concentrations were calculated by relating endogenous signals to internal standard signals under consideration of the corresponding response factors determined by calibration curves in human blank plasma.

Turning to `COCCCOc1cc(C[C@@H](C[C@H](N)[C@@H](O)C[C@H](C(=O)NCC(C)(C)C(N)=O)C(C)C)C(C)C)ccc1OC` [Aliskiren], the “change in the ARR (aldosterone ng/L divided by plasma active renin concentration ng/L)” value in test [1] is “highly significant and profound decrease”. Moreover, the “change in the AA2R (aldosterone pmol/L divided by equilibrium Ang II pmol/L)” value in test [2] is listed as “did not significantly affect”.

For the compound `CCOC(=O)[C@H](CCc1ccccc1)N[C@@H](C)C(=O)N1CCC[C@H]1C(=O)O` [Enalapril], the “change in the ARR (aldosterone ng/L divided by plasma active renin concentration ng/L)” value in test [1] is “highly significant and profound decrease”. Moreover, in test [2], the “change in the AA2R (aldosterone pmol/L divided by equilibrium Ang II pmol/L)” value is “did not significantly affect”.

Consider `CCCCc1nc(Cl)c(CO)n1Cc1ccc(-c2ccccc2-c2nn[nH]n2)cc1` [Losartan], for which the “change in the ARR (aldosterone ng/L divided by plasma active renin concentration ng/L)” value in test [1] is “highly significant and profound decrease”. Besides, the “change in the AA2R (aldosterone pmol/L divided by equilibrium Ang II pmol/L)” value in test [2] is on record as “significant decrease”.
